One assay deals with T1, human CRHR2 (Homo sapiens, UniProt Q13324).
T1 construct: expressed in transfected cells
T1 sequence (Q13324 1-438 isoform Q13324-2): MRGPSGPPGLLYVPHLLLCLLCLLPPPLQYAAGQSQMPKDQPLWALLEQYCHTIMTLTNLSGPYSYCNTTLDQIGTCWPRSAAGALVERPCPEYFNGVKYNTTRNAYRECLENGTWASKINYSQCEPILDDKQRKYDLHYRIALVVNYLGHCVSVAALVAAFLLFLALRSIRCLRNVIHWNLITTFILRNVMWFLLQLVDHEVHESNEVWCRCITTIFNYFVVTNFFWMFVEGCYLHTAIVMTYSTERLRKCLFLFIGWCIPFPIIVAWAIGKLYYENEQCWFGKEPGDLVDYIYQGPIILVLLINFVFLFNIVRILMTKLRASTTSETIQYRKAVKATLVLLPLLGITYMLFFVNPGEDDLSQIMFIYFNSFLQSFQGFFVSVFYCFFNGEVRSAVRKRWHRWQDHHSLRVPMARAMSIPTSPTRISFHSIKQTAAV
In words: Human CRHR2 cAMP assay (HTRF) in HEK293 cells stably expressing human CRHR2. The class given is cell-based. As to conditions: HEK293 cells overexpressing human CRHR2; relative EC50, maximum 10 nM human UCN2; mean ± SE; read-out: hCRHR2 cAMP EC50 (pM, ± SE). In a few lines: (§1)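 Frozen stable HEK293-CRHR1 or -CRHR2 cells are thawed into IBMX-containing (0.25 mM) casein/HEPES pH 7.4 MEM buffer. Peptide dilution series (1:3) are added, then CRHR1 cells sit 1 h at 37° C and CRHR2 cells 30 min at room temperature. Intracellular cAMP is then measured by HTRF.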
Background: cAMP levels reflect the balance of adenylyl cyclase and phosphodiesterase activity.

The target of a further assay is T2, human CRHR1 (Homo sapiens, UniProt P34998).
T2 construct: expressed in transfected cells
T2 sequence (P34998 24-415): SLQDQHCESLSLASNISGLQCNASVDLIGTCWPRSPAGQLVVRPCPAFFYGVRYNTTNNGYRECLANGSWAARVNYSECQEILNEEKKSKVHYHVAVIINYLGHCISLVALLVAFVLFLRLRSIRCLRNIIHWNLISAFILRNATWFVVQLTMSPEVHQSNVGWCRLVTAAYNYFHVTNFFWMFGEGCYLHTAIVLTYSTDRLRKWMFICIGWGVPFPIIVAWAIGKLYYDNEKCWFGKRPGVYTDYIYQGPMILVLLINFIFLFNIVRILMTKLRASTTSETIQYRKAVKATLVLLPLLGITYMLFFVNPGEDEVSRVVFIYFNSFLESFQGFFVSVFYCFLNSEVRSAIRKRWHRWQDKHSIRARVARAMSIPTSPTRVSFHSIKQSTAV
In words: Human CRHR1 cAMP assay (HTRF) in HEK293 cells stably expressing human CRHR1. Type of assay: cell-based. As to conditions: HEK293 cells overexpressing human CRHR1; relative EC50, maximum 66 nM human UCN1; mean ± SE; read-out: hCRHR1 cAMP EC50 (pM, ± SE). A digest of the protocol:
as §1

*1 amine or outer side, *2 acyl side, *3 side chain or, on linkers, in order; H or OH if unused. Where a SMILES comes first, the peptide text is derived from it. Side-chain parts run from the residue outwards. [ ]: non-standard residue; d: D form. The star is where a group is joined. C20 diacid = O=C(O)CCCCCCCCCCCCCCCCCCC(=O)*; C18 diacid = O=C(O)CCCCCCCCCCCCCCCCC(=O)*; γGlu = O=C(O)[C@H](CCC(=O)[*:2])N[*:1]; εLys = N[C@@H](CCCCN[*:1])C(=O)[*:2]; pGlu = O=C1CC[C@@H](C(=O)O)N1; αMeL = CC(C)C[C@](C)(N)C(=O)O; AEEA = NCCOCCOCC(=O)O; Aib = CC(C)(N)C(=O)O; Ahx = NCCCCCC(=O)O

The EC50 is the concentration at which the effect is half-maximal.

In the case of “Ac-GSPSIVTS[αMeL]DVPT[Aib][αMeL]LQKILEQERAEKARQQAK([Ahx-AEEA-γGlu-C20 diacid])EAAEILAQV-NH2 [SEQ ID NO: 4, Ac-GSPSIVTS αMeL DVPT Aib αMeL LQKILEQERAEKARQQAK(Ahx-(2-[2-(2-Amino-ethoxy)-ethoxy]-acetyl)-γE-CO-(CH2)18-CO2H)EAAEILAQV-NH2]”, the results for the EC50 at human CRHR2 and at human CRHR1 were 20.3 ± 2.9 pM and more than 1e+07 pM, respectively.

Consider “Ac-GSPSIVTS[αMeL]DVPT[Aib][αMeL]LQKILEQERAEKARQQAK([γGlu-Pro-Lys-Glu-Ahx-C20 diacid])EAAEILAQV-NH2 [SEQ ID NO: 11, Ac-GSPSIVTS αMeL DVPT Aib αMeL LQKILEQERAEKARQQAK(γE-PKE-Ahx-CO-(CH2)18-CO2H)EAAEILAQV-NH2]”, for which the EC50 is 8.3 ± 1.4 pM on human CRHR2 and more than 1e+07 pM at human CRHR1.

In the case of “[pGlu]GSPSGIVTS[αMeL]DVPT[Aib][αMeL]LQKILEQERAEKARQQAK([γGlu-AEEA-εLys-C18 diacid])EAAEILAQV-NH2 [SEQ ID NO: 24, Pyr-GSPSGIVTS αMeL DVPT Aib αMeL LQKILEQERAEKARQQAK(γE-(2-[2-(2-Amino-ethoxy)-ethoxy]-acetyl)-ϵK-CO-(CH2)16-CO2H)EAAEILAQV-NH2]”, the EC50 at human CRHR2 is 21.7 ± 3.6 pM; at human CRHR1, more than 1e+07 pM.

On to `CC[C@H](C)[C@H](NC(C)=O)C(=O)N[C@H](C(=O)N[C@H](C(=O)N[C@@H](CO)C(=O)N[C@@](C)(CC(C)C)C(=O)N[C@@H](CC(=O)O)C(=O)N[C@@H](C(=O)N1CCC[C@H]1C(=O)N[C@H](C(=O)NCC(=O)N[C@@](C)(CC(C)C)C(=O)N[C@@H](CC(C)C)C(=O)N[C@@H](CCC(N)=O)C(=O)N[C@H](C(=O)N[C@@H](CCCCN)C(=O)N[C@@H](CC(C)C)C(=O)N[C@@H](CCC(=O)O)C(=O)N[C@@H](CCC(N)=O)C(=O)N[C@@H](CCC(=O)O)C(=O)N[C@@H](CCCNC(=N)N)C(=O)N[C@@H](C)C(=O)N[C@@H](CCC(=O)O)C(=O)N[C@@H](CCCCN)C(=O)N[C@@H](C)C(=O)N[C@@H](CCCNC(=N)N)C(=O)N[C@@H](CCC(N)=O)C(=O)N[C@@H](CCC(N)=O)C(=O)N[C@@H](C)C(=O)N[C@@H](CCCCNC(=O)CC[C@H](NC(=O)[C@@H](N)CCCCNC(=O)CC[C@H](NC(=O)CCCCCCCCCCCCCCCCCCC(=O)O)C(=O)O)C(=O)O)C(=O)N[C@@H](CCC(=O)O)C(=O)N[C@@H](CC(N)=O)C(=O)N[C@H](C(=O)N[C@@H](CCC(=O)O)C(=O)N[C@H](C(=O)N[C@@H](CC(C)C)C(=O)N[C@@H](C)C(=O)N[C@@H](CCC(N)=O)C(=O)N[C@H](C(N)=O)C(C)C)[C@@H](C)CC)[C@@H](C)O)[C@@H](C)CC)[C@@H](C)O)C(C)C)[C@@H](C)O)C(C)C` [SEQ ID NO: 39, Ac-IVTS αMeL D (D-Val) PTG αMeL LQIKLEQERAEKARQQAK(γE-ϵK-γE-CO-(CH2)18-CO2H)ENTEILAQV-NH2] (Ac-IVTS[αMeL]D[dV]PTG[αMeL]LQIKLEQERAEKARQQAK([γGlu-εLys-γGlu-C20 diacid])ENTEILAQV-NH2), for which the results for the EC50 on human CRHR2 and on human CRHR1 were 7.3 ± 0.8 pM and 3.7e+06 pM, respectively.

Regarding `CC[C@H](C)[C@H](NC(C)=O)C(=O)N[C@H](C(=O)N[C@H](C(=O)N[C@@H](CO)C(=O)N[C@@](C)(CC(C)C)C(=O)N[C@@H](CC(=O)O)C(=O)N[C@@H](C(=O)N1CCC[C@H]1C(=O)N[C@H](C(=O)NCC(=O)N[C@@](C)(CC(C)C)C(=O)N[C@@H](CC(C)C)C(=O)N[C@@H](CCC(N)=O)C(=O)N[C@H](C(=O)N[C@@H](CCCCN)C(=O)N[C@@H](CC(C)C)C(=O)N[C@@H](CCC(=O)O)C(=O)N[C@@H](CCC(N)=O)C(=O)N[C@@H](CCC(=O)O)C(=O)N[C@@H](CCCNC(=N)N)C(=O)N[C@@H](C)C(=O)N[C@@H](CCC(=O)O)C(=O)N[C@@H](CCCCN)C(=O)N[C@@H](C)C(=O)N[C@@H](CCCNC(=N)N)C(=O)N[C@@H](CCC(N)=O)C(=O)N[C@@H](CCC(N)=O)C(=O)N[C@@H](C)C(=O)N[C@@H](CCCCNC(=O)CC[C@H](NC(=O)COCCOCCNC(=O)CC[C@H](NC(=O)CCCCCCCCCCCCCCCCCCC(=O)O)C(=O)O)C(=O)O)C(=O)N[C@@H](CCC(=O)O)C(=O)N[C@@H](CC(N)=O)C(=O)N[C@H](C(=O)N[C@@H](CCC(=O)O)C(=O)N[C@H](C(=O)N[C@@H](CC(C)C)C(=O)N[C@@H](C)C(=O)N[C@@H](CCC(N)=O)C(=O)N[C@H](C(N)=O)C(C)C)[C@@H](C)CC)[C@@H](C)O)[C@@H](C)CC)[C@@H](C)O)C(C)C)[C@@H](C)O)C(C)C` [SEQ ID NO: 30, Ac-IVTS αMeL D (D-Val) PTG αMeL LQIKLEQERAEKARQQAK(γE-(2-[2-(2-Amino-ethoxy)-ethoxy]-acetyl)-γE-CO-(CH2)18-CO2H)ENTEILAQV-NH2] (Ac-IVTS[αMeL]D[dV]PTG[αMeL]LQIKLEQERAEKARQQAK([γGlu-AEEA-γGlu-C20 diacid])ENTEILAQV-NH2), the concentration for a half-maximal effect (EC50) at human CRHR2 was 5.7 ± 0.1 pM; at human CRHR1 it was more than 1e+07 pM.

Take “Ac-GSPSIVTS[αMeL]DVPT[Aib][αMeL]LQKILEQERAEKARQQAK([γGlu-εLys-AEEA-εLys-C20 diacid])EAAEILAQV-NH2 [SEQ ID NO: 19, Ac-GSPSIVTS αMeL DVPT Aib αMeL LQKILEQERAEKARQQAK(γE-EK-(2-[2-(2-Amino-ethoxy)-ethoxy]-acetyl)-ϵK-CO-(CH2)18-CO2H)EAAEILAQV-NH2]”: the EC50 is 11.1 ± 0.5 pM at human CRHR2 and more than 1e+07 pM on human CRHR1.

On to “Ac-GSPSIVTS[αMeL]DVPT[Aib][αMeL]LQKILEQERAEKARQQAK([γGlu-AEEA-εLys-C18 diacid])EAAEILAQV-NH2 [SEQ ID NO: 21, Ac-GSPSIVTS αMeL DVPT Aib αMeL LQKILEQERAEKARQQAK(γE-(2-[2-(2-Amino-ethoxy)-ethoxy]-acetyl)-ϵK-CO-(CH2)16-CO2H)EAAEILAQV-NH2]”, for which the EC50 on human CRHR2 is 16.3 ± 1.3 pM; at human CRHR1, more than 1e+07 pM.

As to “Ac-GSPSIVTS[αMeL]DVPT[Aib][αMeL]LQKILEQERAEKARQQAK([γGlu-εLys-γGlu-εLys-C20 diacid])EAAEILAQV-NH2 [SEQ ID NO: 18, Ac-GSPSIVTS αMeL DVPT Aib αMeL LQKILEQERAEKARQQAK(γE-ϵK-γE-ϵK-CO-(CH2)18-CO2H)EAAEILAQV-NH2]”, the results for the EC50 at human CRHR2 and on human CRHR1 were 10.9 ± 1.3 pM and more than 1e+07 pM, respectively.

The values are drawn from patent US20250163119A1, “COMPOUNDS FOR THE TREATMENT OF DIABETES OR OBESITY” (Eli Lilly and Company, priority 2023, published 2025).
